Measured values reported in paper PMC6791878, “Evaluation of integrin αvβ6 cystine knot PET tracers to detect cancer and idiopathic pulmonary fibrosis” (Nature Communications, 2019).
Values joined by “and” are separate entries in the source; they are usually repeats but may differ in a detail not shown here. Equal entries are not always repeated.

Assays:
human integrin αvβ6 [1] = target: T1, human integrin αvβ6 (Homo sapiens, UniProt P06756+P18564, DEL708-788); test: Competition binding (IC50) against yeast surface-displayed R01-MG; conditions: compete with R01-MG displayed on yeast
T1 construct: purchased R&D Systems

human integrin αvβ6 [2] = target: T1, human integrin αvβ6; test: Equilibrium binding of yeast-displayed knottins to soluble integrin αvβ6 (two-colour flow cytometry, KD); conditions: KD, equilibrium binding, knottin expressed on yeast surface vs soluble human integrin αvβ6; ± S.D., three replicates on separate days

T1 sequence (P06756 31-992 limits assumed, stated change not applied): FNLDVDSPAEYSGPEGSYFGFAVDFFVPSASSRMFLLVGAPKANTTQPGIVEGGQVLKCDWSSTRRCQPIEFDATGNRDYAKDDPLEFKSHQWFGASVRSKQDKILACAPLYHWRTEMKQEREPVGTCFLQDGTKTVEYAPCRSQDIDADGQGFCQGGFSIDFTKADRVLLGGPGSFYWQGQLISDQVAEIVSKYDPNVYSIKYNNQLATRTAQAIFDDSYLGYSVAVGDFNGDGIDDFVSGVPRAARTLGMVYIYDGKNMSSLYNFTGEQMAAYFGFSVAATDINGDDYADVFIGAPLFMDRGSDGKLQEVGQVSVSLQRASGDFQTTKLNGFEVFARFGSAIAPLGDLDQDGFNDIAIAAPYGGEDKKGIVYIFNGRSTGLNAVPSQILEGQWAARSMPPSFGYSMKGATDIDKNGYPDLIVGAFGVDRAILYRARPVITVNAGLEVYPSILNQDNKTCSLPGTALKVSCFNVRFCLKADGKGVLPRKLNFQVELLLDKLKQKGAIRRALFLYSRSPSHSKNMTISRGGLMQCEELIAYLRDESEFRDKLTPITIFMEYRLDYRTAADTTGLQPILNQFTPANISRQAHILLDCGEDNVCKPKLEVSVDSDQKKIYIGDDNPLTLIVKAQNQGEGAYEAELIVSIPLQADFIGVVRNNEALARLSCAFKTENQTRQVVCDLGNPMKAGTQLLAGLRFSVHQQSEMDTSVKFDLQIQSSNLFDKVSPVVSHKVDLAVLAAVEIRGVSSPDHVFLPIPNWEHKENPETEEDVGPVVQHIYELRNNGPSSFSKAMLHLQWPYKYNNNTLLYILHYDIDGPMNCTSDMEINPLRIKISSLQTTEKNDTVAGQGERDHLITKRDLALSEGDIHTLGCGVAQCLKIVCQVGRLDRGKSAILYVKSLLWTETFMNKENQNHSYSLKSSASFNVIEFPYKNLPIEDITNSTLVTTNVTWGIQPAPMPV
T1 sequence (P18564 22-707 limits assumed, stated change not applied): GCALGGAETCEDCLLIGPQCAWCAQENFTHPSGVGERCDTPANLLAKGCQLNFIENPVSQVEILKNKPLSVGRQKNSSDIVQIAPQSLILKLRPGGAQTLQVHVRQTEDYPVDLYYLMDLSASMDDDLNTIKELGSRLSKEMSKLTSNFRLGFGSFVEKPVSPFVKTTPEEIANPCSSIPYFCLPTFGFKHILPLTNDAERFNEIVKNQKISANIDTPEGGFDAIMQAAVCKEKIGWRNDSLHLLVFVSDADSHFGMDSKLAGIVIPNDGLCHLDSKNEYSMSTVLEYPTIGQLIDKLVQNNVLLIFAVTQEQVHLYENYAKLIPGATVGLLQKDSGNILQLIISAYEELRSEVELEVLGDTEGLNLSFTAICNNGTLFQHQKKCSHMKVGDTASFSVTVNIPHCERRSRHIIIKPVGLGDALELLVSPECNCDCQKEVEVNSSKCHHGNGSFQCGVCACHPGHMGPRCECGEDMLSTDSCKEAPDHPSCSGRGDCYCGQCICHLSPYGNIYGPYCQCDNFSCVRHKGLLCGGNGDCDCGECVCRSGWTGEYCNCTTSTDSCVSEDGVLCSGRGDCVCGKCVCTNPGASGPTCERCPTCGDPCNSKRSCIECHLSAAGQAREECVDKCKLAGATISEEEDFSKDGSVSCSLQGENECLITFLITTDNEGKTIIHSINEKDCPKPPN

`CC[C@H](C)[C@@H]1NC(=O)[C@@H](NC(=O)CN)CSSC[C@@H]2NC(=O)[C@H](C)NC(=O)CNC(=O)[C@@H]3CCCN3C(=O)[C@@H]3CSSC[C@@H](C(=O)NCC(N)=O)NC(=O)[C@H](Cc4ccc(O)cc4)NC(=O)CNC(=O)[C@H](CC(N)=O)NC(=O)CNC(=O)[C@H](CCCNC(=N)N)NC(=O)[C@H](CSSC[C@H](NC(=O)[C@H](CCCNC(=N)N)NC(=O)[C@H](Cc4ccccc4)NC(=O)[C@H](CC(C)C)NC(=O)[C@H](CC(C)C)NC(=O)[C@H]([C@@H](C)O)NC(=O)CNC(=O)[C@H](CC(C)C)NC(=O)[C@H](CC(=O)O)NC(=O)[C@H]([C@@H](C)O)NC(=O)[C@H](CCCNC(=N)N)NC(=O)CNC(=O)[C@H](CC(N)=O)NC(=O)[C@H](CC(C)C)NC1=O)C(=O)N[C@@H](CCCNC(=N)N)C(=O)N[C@@H](CCCNC(=N)N)C(=O)N[C@@H](CC(=O)O)C(=O)N[C@@H](CO)C(=O)N[C@@H](CC(=O)O)C(=O)N3)NC(=O)[C@H]([C@@H](C)CC)NC2=O` [R01-MG] was tested, and the “binding affinity for integrin avb6 in competition binding (IC50), in words” value (human integrin αvβ6 [1]) was “subnanomolar” and the Kd (human integrin αvβ6 [2]) was ~1 nM and 1.24 nM.
